According to patent publication US20140303105A1, “Primycin and components thereof for use in the treatment or prevention of infections caused by specific pathogens” (PANNONPHARMA GYÓGYSZERGYÁRTÓ ZRT., priority 2011, published 2014):
Values after ≈ are worked out from the molar mass of the structure shown.

Columns and labels:
Test in all cases: Standard microdilution susceptibility test, clinical isolates
Format in all cases: cell-based
[1] = tested on: Coagulase-negative Staphylococus sp., methicillin susceptible; conditions: 10 clinical isolates; for MIC50: read-out: MIC 50%; for MIC90: read-out: MIC 90%
[2] = tested on: Staphylococcus aureus, methicillin resistant; conditions: 10 clinical isolates; for MIC50 / MIC90: Staphylococcus aureus; for MIC50: read-out: MIC 50%; for MIC90: read-out: MIC 90%
[3] = tested on: Streptococcus pneumoniae, penicillin susceptible; conditions: for MIC50 / MIC90: Streptococcus pneumoniae; for MIC50: read-out: MIC 50%; for MIC90: read-out: MIC 90%; for MIC: single isolate
[4] = tested on: Enterococcus sp., vancomycin susceptible; conditions: 20 clinical isolates; for MIC50 / MIC90: Enterococcus; for MIC50: read-out: MIC 50%; for MIC90: read-out: MIC 90%
[5] = tested on: Staphylococcus aureus, methicillin susceptible; conditions: 10 clinical isolates; for MIC50 / MIC90: Staphylococcus aureus; for MIC50: read-out: MIC 50%; for MIC90: read-out: MIC 90%
[6] = tested on: Streptococcus pneumoniae, penicillin resistant; conditions: for MIC50 / MIC90: Streptococcus pneumoniae; for MIC50: read-out: MIC 50%; for MIC90: read-out: MIC 90%
[7] = tested on: Enterococcus sp., decreased vancomycin susceptibility; conditions: 5 clinical isolates
[8] = tested on: Coagulase-negative Staphylococus sp., methicillin resistant; conditions: 10 clinical isolates; for MIC50: read-out: MIC 50%; for MIC90: read-out: MIC 90%
[9] = tested on: Streptococcus viridans sp.; conditions: 20 clinical isolates; for MIC50 / MIC90: Streptococcus viridans; for MIC50: read-out: MIC 50%; for MIC90: read-out: MIC 90%

Compound	MIC Range [1] [µg/mL]	Ratio of Sensitive/Total [1]	MIC50 [1] [µg/mL]	MIC90 [1] [µg/mL]	Ratio of Sensitive/Total [2]	MIC50 [2] [µg/mL]	MIC90 [2] [µg/mL]	MIC Range ([3]; 10 clinical isolates) [µg/mL]	Ratio of Sensitive/Total ([3]; 10 clinical isolates)	MIC50 ([3]; 10 clinical isolates) [µg/mL]	MIC90 ([3]; 10 clinical isolates) [µg/mL]	Ratio of Sensitive/Total [4]	MIC50 [4] [µg/mL]	MIC90 [4] [µg/mL]	MIC Range [5] [µg/mL]	Ratio of Sensitive/Total [5]	Ratio of Sensitive/Total ([6]; 10 clinical isolates)	Ratio of Sensitive/Total [7]	Ratio of Sensitive/Total [8]	Ratio of Sensitive/Total [9]	further results
CC1COc2c(N3CCN(C)CC3)c(F)cc3c(=O)c(C(=O)O)cn1c23 (centres unmarked) [Ofloxacin]	0.25 to 1	10/10	1 (≈ 2.77 µM)	1 (≈ 2.77 µM)	1/10	16 (≈ 44.3 µM)	> 16	1 to 4	9/10	2 (≈ 5.53 µM)	2 (≈ 5.53 µM)	3/20	4 (≈ 11.1 µM)	> 16	0.5 to 1	10/10	10/10	2/5	0/10	14/20	MIC50 [5]: 0.5 µg/mL (≈ 1.38 µM); MIC90 [5]: 1 µg/mL (≈ 2.77 µM); MIC Range ([6]; 10 clinical isolates): 1 to 2 µg/mL; MIC50 ([6]; 10 clinical isolates): 1 µg/mL (≈ 2.77 µM); MIC90 ([6]; 10 clinical isolates): 2 µg/mL (≈ 5.53 µM); MIC Range [7]: 2 to 8 µg/mL; MIC50 [8]: > 16 µg/mL; MIC90 [8]: > 16 µg/mL; MIC Range [9]: 1 to 8 µg/mL; MIC50 [9]: 2 µg/mL (≈ 5.53 µM); MIC90 [9]: 4 µg/mL (≈ 11.1 µM)
CN(C)[C@@H]1C(O)=C(C(N)=O)C(=O)[C@@]2(O)C(O)=C3C(=O)c4c(O)cccc4[C@@](C)(O)[C@H]3[C@H](O)[C@@H]12 [Oxytetracycline]		9/10	0.25 (≈ 0.543 µM)	1 (≈ 2.17 µM)	10/10	0.25 (≈ 0.543 µM)	0.25 (≈ 0.543 µM)	1 to 8	8/10	1 (≈ 2.17 µM)	8 (≈ 17.4 µM)	6/20	16 (≈ 34.7 µM)	32 (≈ 69.5 µM)	0.25 to 32	8/10	1/10	2/5	8/10	10/20	MIC Range [2]: 0.125 to 0.25 µg/mL; MIC50 [5]: 0.25 µg/mL (≈ 0.543 µM); MIC90 [5]: 32 µg/mL (≈ 69.5 µM); MIC50 ([6]; 10 clinical isolates): 32 µg/mL (≈ 69.5 µM); MIC90 ([6]; 10 clinical isolates): > 32 µg/mL; MIC Range [7]: 0.25 to 16 µg/mL; MIC50 [8]: 1 µg/mL (≈ 2.17 µM); MIC90 [8]: > 32 µg/mL; MIC50 [9]: 4 µg/mL (≈ 8.69 µM); MIC90 [9]: > 32 µg/mL
NC[C@H]1O[C@H](O[C@H]2[C@H](O)[C@@H](O[C@H]3O[C@H](CO)[C@@H](O)[C@H](N)[C@H]3O)[C@H](N)C[C@@H]2N)[C@H](N)C[C@@H]1O [Tobramycin]	0.06 to 4	10/10	0.06 (≈ 0.128 µM)	4 (≈ 8.56 µM)	6/10	1 (≈ 2.14 µM)	> 32	16 to 32	0/10	16 (≈ 34.2 µM)	32 (≈ 68.4 µM)	0/20	16 (≈ 34.2 µM)	> 32	0.5 to 1	10/10	0/10	0/5	5/10	1/20	MIC50 [5]: 0.5 µg/mL (≈ 1.07 µM); MIC90 [5]: 0.5 µg/mL (≈ 1.07 µM); MIC50 ([6]; 10 clinical isolates): 32 µg/mL (≈ 68.4 µM); MIC90 ([6]; 10 clinical isolates): > 32 µg/mL; MIC50 [8]: 0.06 µg/mL (≈ 0.128 µM); MIC90 [8]: > 32 µg/mL; MIC Range [9]: 4 to 32 µg/mL; MIC50 [9]: 16 µg/mL (≈ 34.2 µM); MIC90 [9]: 32 µg/mL (≈ 68.4 µM)
Gentamicin	0.03 to 8	9/10			10/10			8 to 16	0/10			1/20			0.25 to 0.5	10/10	0/10	0/5	6/10	9/20	MIC 50% [1]: 0.125 µg/mL; MIC 90% [1]: 4 µg/mL; MIC 50% [2]: 0.5 µg/mL; MIC 90% [2]: 0.5 µg/mL; MIC Range [2]: 0.25 to 1 µg/mL; MIC 50% ([3]; 10 clinical isolates): 16 µg/mL; MIC 90% ([3]; 10 clinical isolates): 16 µg/mL; MIC 50% [4]: 8 µg/mL; MIC 90% [4]: >16 µg/mL; MIC 50% [5]: 0.5 µg/mL; MIC 90% [5]: 0.5 µg/mL; MIC 50% ([6]; 10 clinical isolates): 16 µg/mL; MIC 90% ([6]; 10 clinical isolates): >16 µg/mL; MIC Range [7]: 8 to 16 µg/mL; MIC 50% [8]: 0.125 µg/mL; MIC 90% [8]: >16 µg/mL; MIC 50% [9]: 8 µg/mL; MIC 90% [9]: 16 µg/mL
Penicillin																					MIC ([3]; serotype 3): 0.015 µg/mL; MIC ([3]; serotype 4): 0.015 µg/mL; MIC ([3]; serotype 7F): 0.015 µg/mL; MIC ([3]; serotype 8): 0.015 µg/mL; MIC ([3]; serotype 9(V)): 0.03 µg/mL; MIC ([3]; serotype 11(A)): 0.06 µg/mL; MIC ([3]; serotype 19F): 0.03 µg/mL; MIC ([3]; serotype 23(F)): 0.015 µg/mL; MIC ([6]; single isolate, serotype 23(F)): 2 µg/mL
